Measured values: patent US7902199B2, “Heterocyclic substituted piperazine compounds with CXCR3 antagonist activity” (Schering Corporation, priority 2006, dated 2011)

Target: T1, Human CXCR3 (N-delta 4) (Homo sapiens, UniProt P49682)
T1 construct: CD8 leader (N); Flag; expressed in transfected cells; membrane preparation
T1 sequence (P49682 5-368 limits assumed): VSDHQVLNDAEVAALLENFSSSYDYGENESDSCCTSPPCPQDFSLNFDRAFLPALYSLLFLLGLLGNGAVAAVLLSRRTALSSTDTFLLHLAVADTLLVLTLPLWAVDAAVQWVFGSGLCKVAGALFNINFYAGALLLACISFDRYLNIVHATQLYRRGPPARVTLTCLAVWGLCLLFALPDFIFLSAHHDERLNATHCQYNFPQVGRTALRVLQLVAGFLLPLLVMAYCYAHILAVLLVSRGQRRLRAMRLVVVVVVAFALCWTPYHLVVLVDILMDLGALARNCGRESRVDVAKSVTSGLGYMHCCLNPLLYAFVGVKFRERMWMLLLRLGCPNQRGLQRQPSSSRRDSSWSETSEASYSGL
Assay: Human CXCR3 (N-delta 4) Scintillation Proximity Assay (SPA), [125I] IP-10 binding
Details: rating; 25 pM [125I] IP-10, Ba/F3-hCXCR3 (N-delta 4) membranes, 3 hr room temperature
Description: The inventive compounds can readily be evaluated to determine activity at The CXCR3 receptors by known methods, such as, for example, Development of Human CXCR3 (N-delta 4) Binding Assay.
Cloning and Expression of Human CXCR3 (N-delta 4):
The DNA encoding human CXCR3 was cloned by PCR using human genomic DNA (Promega, Madison, Wis.) as a template. The PCR primers were designed based on the published sequence of human orphan receptor GPR9 (1) with incorporated restriction sites, a Kozak consensus sequence, CD8 leader and Flag tag. The PCR product was subcloned into the mammalian expression vector pME18neo, a derivative of the SR-alpha expression vector (designated as pME18Sneo-hCXCR3 (N-delta 4).
IL-3-dependent mouse pro-B cells Ba/F3 were transfected by electroporation in 0.4 ml Dulbecco's PBS containing 4×10^6 cells with 20 μg of pME18Sneo-hCXCR3 (N-delta 4) plasmid DNA. Cells were pulsed at 400 Volts, 100 OHMs, 960 μFd. The transfected cells were under selection with 1 mg/ml G418 (Life Technologies, Gaithersburg, Md.). G418-resistant Ba/F3 clones were screened for CXCR3 expression by specific binding of [^125I] IP-10 (NEN Life Science Products, Boston, Mass.).
Preparation of Ba/F3-hCXCR3 (N-delta 4) Membranes
Ba/F3 cells expressing human CXCR3 (N-delta 4) were pelleted and resuspended in the lysis buffer containing 10 mM HEPES, pH 7.5 and Complete® protease inhibitors (1 tablet per 100 ml) (Boehringer Mannheim, Indianapolis, Ind.) at a cell density of 20×10^6 cells per ml. After 5 minutes incubation on ice, cells were transferred to 4639 cell disruption bomb (Parr Instrument, Moline, Ill.) and applied with 1,500 psi of nitrogen for 30 minutes on ice. Large cellular debris was removed by centrifugation at 1,000×g. Cell membrane in the supernatant was sedimented at 100,000×g. The membrane was resuspended in the lysis buffer supplemented with 10% sucrose and stored at −80° C. Total protein concentration of the membrane was determined by BCA method from Pierce (Rockford, Ill.).
Human CXCR3 (N-delta 4) Scintillation Proximity Assay (SPA)
For each assay point, 2 μg of membrane was preincubated for 1 hr with 300 μg wheat germ agglutinin (WGA) coated SPA beads (Amersham, Arlington Heights, Ill.) in the binding buffer (50 mM HEPES, 1 mM CaCl2, 5 mM MgCl2, 125 mM NaCl, 0.002% NaN3, 1.0% BSA) at room temperature. The beads were spun down, washed once, resuspended in the binding buffer and transferred to a 96-well Isoplate (Wallac, Gaithersburg, Md.). 25 pM of [^125I] IP-10 with tested compounds in a series of titration were added to start the reaction. After 3 hr reaction at room temperature, the amount of [^125I] IP-10 bound to the SPA beads was determined with a Wallac 1450 Microbeta counter.
The Ki values for the various example compounds of the present invention are given in the afore-mentioned Table 1. From these values, it would be apparent to the skilled artisan that the compounds of the invention have excellent utility CXCR3 antagonists.

Compound | Ki
CCNC(=O)c1ccc(N2CCN(C3CCN(Cc4ccc(Cl)cc4)CC3)[C@@H](CC)C2)c(C)n1 [Compound 1] | < 25 nM
CC[C@H]1CN(c2ccc(C(=O)NC3CC3)nc2C)CCN1C1CCN(Cc2ccc(OC(F)(F)F)cc2)CC1 [Compound 2] | < 25 nM
CC[C@H]1CN(c2ccc(C(N)=O)nc2C)CCN1C1CCN(Cc2ccc(Cl)cc2)CC1 [Compound 3] | < 25 nM
CC[C@H]1CN(c2ccc(C(N)=O)nc2C)CCN1C1CCN(Cc2ccc(OC(F)(F)F)cc2)CC1 [Compound 4] | < 25 nM
CC[C@H]1CN(c2ccc(C(=O)NC3CC3)nc2C)CCN1C1CCN(C(=O)c2ccc(Cl)c(F)c2)CC1 [Compound 5] | < 25 nM
CC[C@H]1CN(c2ccc(C(=O)NC3CC3)nc2C)CCN1C1CCN(C(=O)c2ccc(Cl)cc2)CC1 [Compound 6] | < 25 nM
CC[C@H]1CN(c2ccc(C(=O)NC3CC3)nc2Cl)[C@H](C)CN1C1CCN(C(=O)c2ccc(Cl)cc2)CC1 [Compound 7] | < 25 nM
CC[C@H]1CN(c2ccc(C(=O)NC3CC3)nc2C)CCN1C1CCN(C(=O)c2ccc(F)c(F)c2)CC1 [Compound 8] | < 25 nM
CC[C@H]1CN(c2ccc(C(=O)NC3CC3)nc2C)[C@H](C)CN1C1CCN(C(=O)c2ccc(Cl)c(F)c2)CC1 [Compound 9] | < 25 nM
CC[C@H]1CN(c2ccc(C(N)=O)nc2C)CCN1C1CCN(C(=O)c2ccc(Cl)cc2)CC1 [Compound 10] | < 25 nM
CC[C@H]1CN(c2ccc(C(=O)NC3CC3)nc2C(F)(F)F)[C@H](C)CN1C1CCN(C(=O)c2ccc(Cl)cc2)CC1 [Compound 11] | 25 to 100 nM
CC[C@H]1CN(c2cnc(C#N)cc2C)CCN1C1CCN(C(=O)c2ccc(Cl)cc2)CC1 [Compound 12] | > 100 nM
CC[C@H]1CN(c2ccc(CO)nc2C)CCN1C1CCN(C(=O)c2ccc(Cl)cc2)CC1 [Compound 13] | > 100 nM
CC[C@H]1CN(c2cnc(C(N)=O)cc2C)CCN1C1CCN(C(=O)c2ccc(Cl)cc2)CC1 [Compound 14] | > 100 nM
